According to patent publication US9738634B2, “Heterocyclic amide compound and herbicide” (SYNGENTA PARTICIPATIONS AG, priority 2013, dated 2017):

Tests used:
Type in all cases: in vivo
Details in all cases: treatment dosage 320 g/ha
barnyard grass [1] = experiment: Test Example 1: weedkilling efficacy, preemergent weed treatment in the submerged state; A: barnyard grass
Procedure, shortened: (§1)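 Emulsion diluted with water to the specified per-hectare dosage is applied onto flood water (4 cm) over alluvial soil on the sowing day, with barnyard grass, bulrush and pondweed seeded and rice (2.5-leaf) transplanted; plants grow at 25–30 °C and are rated at 3 weeks.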

bulrush [2] = experiment: Test Example 1: weedkilling efficacy, preemergent weed treatment in the submerged state; B: bulrush
Procedure, shortened: as §1

oval-leafed pondweed [3] = experiment: Test Example 1: weedkilling efficacy, preemergent weed treatment in the submerged state; C: oval-leafed pondweed
Procedure, shortened: as §1

transplanted rice = experiment: Test Example 1: preemergent weed treatment in the submerged state, effect on crop; a: transplanted rice
Procedure, shortened: as §1

barnyard grass [4] = experiment: Test Example 2: weedkilling efficacy, growth period weed treatment in the submerged state; A: barnyard grass
Procedure, shortened: (§2)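 First, alluvial soil in pots is flooded to 4 cm and mixed seed is sown. Next, plants grow in a greenhouse at 25 to 30° C until the 1-2 leaf stage. Then diluted emulsion is applied onto the water surface at the given g/ha rate, and injury is assessed after 3 weeks.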

bulrush [5] = experiment: Test Example 2: weedkilling efficacy, growth period weed treatment in the submerged state; B: bulrush
Procedure, shortened: as §2

oval-leafed pondweed [6] = experiment: Test Example 2: weedkilling efficacy, growth period weed treatment in the submerged state; C: oval-leafed pondweed
Procedure, shortened: as §2

crabgrass [7] = experiment: Test Example 3: weedkilling efficacy through soil treatment; D: crabgrass
Procedure, shortened: (§3)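 Crop and weed responses were judged three weeks after a uniform surface spray of the water-diluted emulsion at the given g/ha rate. Seeds sat beneath about 1.5 cm of sterilized diluvial soil, and boxes stood in a greenhouse at 25 to 30° C.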

green foxtail [8] = experiment: Test Example 3: weedkilling efficacy through soil treatment; E: green foxtail
Procedure, shortened: as §3

barnyard grass [9] = experiment: Test Example 3: weedkilling efficacy through soil treatment; F: barnyard grass
Procedure, shortened: as §3

wild oat [10] = experiment: Test Example 3: weedkilling efficacy through soil treatment; G: wild oat
Procedure, shortened: as §3

black-grass [11] = experiment: Test Example 3: weedkilling efficacy through soil treatment; H: black-grass
Procedure, shortened: as §3

Italian ryegrass [12] = experiment: Test Example 3: weedkilling efficacy through soil treatment; I: Italian ryegrass
Procedure, shortened: as §3

common wind-grass [13] = experiment: Test Example 3: weedkilling efficacy through soil treatment; J: common wind-grass
Procedure, shortened: as §3

Indian mallow [14] = experiment: Test Example 3: weedkilling efficacy through soil treatment; K: Indian mallow
Procedure, shortened: as §3

redroot pigweed [15] = experiment: Test Example 3: weedkilling efficacy through soil treatment; L: redroot pigweed
Procedure, shortened: as §3

fig-leafed goosefoot [16] = experiment: Test Example 3: weedkilling efficacy through soil treatment; M: fig-leafed goosefoot
Procedure, shortened: as §3

chickweed [17] = experiment: Test Example 3: weedkilling efficacy through soil treatment; N: chickweed
Procedure, shortened: as §3

catchweed [18] = experiment: Test Example 3: weedkilling efficacy through soil treatment; O: catchweed
Procedure, shortened: as §3

birds-eye speedwell = experiment: Test Example 3: weedkilling efficacy through soil treatment; p: birds-eye speedwell
Procedure, shortened: as §3

directly sown rice [19] = experiment: Test Example 3: soil treatment, effect on crop; b: directly sown rice
Procedure, shortened: as §3

corn [20] = experiment: Test Example 3: soil treatment, effect on crop; c: corn
Procedure, shortened: as §3

soybean [21] = experiment: Test Example 3: soil treatment, effect on crop; d: soybean
Procedure, shortened: as §3

wheat [22] = experiment: Test Example 3: soil treatment, effect on crop; e: wheat
Procedure, shortened: as §3

beet [23] = experiment: Test Example 3: soil treatment, effect on crop; f: beet
Procedure, shortened: as §3

rapeseed [24] = experiment: Test Example 3: soil treatment, effect on crop; g: rapeseed
Procedure, shortened: as §3

crabgrass [25] = experiment: Test Example 4: weedkilling efficacy by foliar treatment; D: crabgrass
Procedure, shortened: (§4)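 Seeds are spot-sown into sterilized diluvial soil and covered with about 1.5 cm of soil. After 14 days' greenhouse growth at 25 to 30° C, plants are sprayed on stems and leaves with diluted emulsion at the stated g/ha rate, then scored at 3 weeks.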

green foxtail [26] = experiment: Test Example 4: weedkilling efficacy by foliar treatment; E: green foxtail
Procedure, shortened: as §4

barnyard grass [27] = experiment: Test Example 4: weedkilling efficacy by foliar treatment; F: barnyard grass
Procedure, shortened: as §4

wild oat [28] = experiment: Test Example 4: weedkilling efficacy by foliar treatment; G: wild oat
Procedure, shortened: as §4

black-grass [29] = experiment: Test Example 4: weedkilling efficacy by foliar treatment; H: black-grass
Procedure, shortened: as §4

Italian ryegrass [30] = experiment: Test Example 4: weedkilling efficacy by foliar treatment; I: Italian ryegrass
Procedure, shortened: as §4

common wind-grass [31] = experiment: Test Example 4: weedkilling efficacy by foliar treatment; J: common wind-grass
Procedure, shortened: as §4

Indian mallow [32] = experiment: Test Example 4: weedkilling efficacy by foliar treatment; K: Indian mallow
Procedure, shortened: as §4

redroot pigweed [33] = experiment: Test Example 4: weedkilling efficacy by foliar treatment; L: redroot pigweed
Procedure, shortened: as §4

fig-leafed goosefoot [34] = experiment: Test Example 4: weedkilling efficacy by foliar treatment; M: fig-leafed goosefoot
Procedure, shortened: as §4

chickweed [35] = experiment: Test Example 4: weedkilling efficacy by foliar treatment; N: chickweed
Procedure, shortened: as §4

catchweed [36] = experiment: Test Example 4: weedkilling efficacy by foliar treatment; O: catchweed
Procedure, shortened: as §4

directly sown rice [37] = experiment: Test Example 4: foliar treatment, effect on crop; b: directly sown rice
Procedure, shortened: as §4

corn [38] = experiment: Test Example 4: foliar treatment, effect on crop; c: corn
Procedure, shortened: as §4

soybean [39] = experiment: Test Example 4: foliar treatment, effect on crop; d: soybean
Procedure, shortened: as §4

wheat [40] = experiment: Test Example 4: foliar treatment, effect on crop; e: wheat
Procedure, shortened: as §4

beet [41] = experiment: Test Example 4: foliar treatment, effect on crop; f: beet
Procedure, shortened: as §4

rapeseed [42] = experiment: Test Example 4: foliar treatment, effect on crop; g: rapeseed
Procedure, shortened: as §4

`CC1=C(c2ccccc2)C(=O)N(C(C)(C)C(=O)Nc2cc(C)cc(Cl)n2)CO1` [B-2-43] was tested, and the “A (barnyard grass) weedkilling efficacy grade” value (barnyard grass [1]) was 5 (weed kill ratio 90% or more, (practically complete withering)), the “B (bulrush) weedkilling efficacy grade” value (bulrush [2]) was 5 (weed kill ratio 90% or more, (practically complete withering)) and the “C (oval-leafed pondweed) weedkilling efficacy grade” value (oval-leafed pondweed [3]) was 5 (weed kill ratio 90% or more, (practically complete withering)). The “a (transplanted rice) effect on crop grade” value (transplanted rice) was 3 (weed kill ratio 40% or more, less than 70%), the “A (barnyard grass) weedkilling efficacy grade” value (barnyard grass [4]) was 5 (weed kill ratio 90% or more, (practically complete withering)) and the “B (bulrush) weedkilling efficacy grade” value (bulrush [5]) was 5 (weed kill ratio 90% or more, (practically complete withering)). The “C (oval-leafed pondweed) weedkilling efficacy grade” value (oval-leafed pondweed [6]) was 5 (weed kill ratio 90% or more, (practically complete withering)), the “D (crabgrass) weedkilling efficacy grade” value (crabgrass [7]) was 5 (weed kill ratio 90% or more, (practically complete withering)) and the “E (green foxtail) weedkilling efficacy grade” value (green foxtail [8]) was 4 (weed kill ratio 70% or more, less than 90%). The “F (barnyard grass) weedkilling efficacy grade” value (barnyard grass [9]) was 5 (weed kill ratio 90% or more, (practically complete withering)), the “G (wild oat) weedkilling efficacy grade” value (wild oat [10]) was 5 (weed kill ratio 90% or more, (practically complete withering)) and the “H (black-grass) weedkilling efficacy grade” value (black-grass [11]) was 5 (weed kill ratio 90% or more, (practically complete withering)). For the same molecule, the “I (Italian ryegrass) weedkilling efficacy grade” value (Italian ryegrass [12]) was 5 (weed kill ratio 90% or more, (practically complete withering)), the “J (common wind-grass) weedkilling efficacy grade” value (common wind-grass [13]) was 5 (weed kill ratio 90% or more, (practically complete withering)) and the “K (Indian mallow) weedkilling efficacy grade” value (Indian mallow [14]) was 0 (weed kill ratio 5% or less (practically no effect)). For the same molecule, the “L (redroot pigweed) weedkilling efficacy grade” value (redroot pigweed [15]) was 3 (weed kill ratio 40% or more, less than 70%), the “M (fig-leafed goosefoot) weedkilling efficacy grade” value (fig-leafed goosefoot [16]) was 3 (weed kill ratio 40% or more, less than 70%) and the “N (chickweed) weedkilling efficacy grade” value (chickweed [17]) was 4 (weed kill ratio 70% or more, less than 90%). The “O (catchweed) weedkilling efficacy grade” value (catchweed [18]) was 4 (weed kill ratio 70% or more, less than 90%), the “P (birds-eye speedwell) weedkilling efficacy grade” value (birds-eye speedwell) was 5 (weed kill ratio 90% or more, (practically complete withering)) and the “b (directly sown rice) effect on crop grade” value (directly sown rice [19]) was 3 (weed kill ratio 40% or more, less than 70%). For the same molecule, the “c (corn) effect on crop grade” value (corn [20]) was 0 (weed kill ratio 5% or less (practically no effect)), the “d (soybean) effect on crop grade” value (soybean [21]) was 2 (weed kill ratio 20% or more, less than 40%) and the “e (wheat) effect on crop grade” value (wheat [22]) was 1 (weed kill ratio 5% or more, less than 20%). The “f (beet) effect on crop grade” value (beet [23]) was 4 (weed kill ratio 70% or more, less than 90%), the “g (rapeseed) effect on crop grade” value (rapeseed [24]) was 4 (weed kill ratio 70% or more, less than 90%) and the “D (crabgrass) weedkilling efficacy grade” value (crabgrass [25]) was 5 (weed kill ratio 90% or more, (practically complete withering)). The “E (green foxtail) weedkilling efficacy grade” value (green foxtail [26]) was 5 (weed kill ratio 90% or more, (practically complete withering)), the “F (barnyard grass) weedkilling efficacy grade” value (barnyard grass [27]) was 5 (weed kill ratio 90% or more, (practically complete withering)) and the “G (wild oat) weedkilling efficacy grade” value (wild oat [28]) was 3 (weed kill ratio 40% or more, less than 70%). The “H (black-grass) weedkilling efficacy grade” value (black-grass [29]) was 5 (weed kill ratio 90% or more, (practically complete withering)), the “I (Italian ryegrass) weedkilling efficacy grade” value (Italian ryegrass [30]) was 5 (weed kill ratio 90% or more, (practically complete withering)) and the “J (common wind-grass) weedkilling efficacy grade” value (common wind-grass [31]) was 5 (weed kill ratio 90% or more, (practically complete withering)). For the same molecule, the “K (Indian mallow) weedkilling efficacy grade” value (Indian mallow [32]) was 3 (weed kill ratio 40% or more, less than 70%), the “L (redroot pigweed) weedkilling efficacy grade” value (redroot pigweed [33]) was 3 (weed kill ratio 40% or more, less than 70%) and the “M (fig-leafed goosefoot) weedkilling efficacy grade” value (fig-leafed goosefoot [34]) was 4 (weed kill ratio 70% or more, less than 90%). For the same molecule, the “N (chickweed) weedkilling efficacy grade” value (chickweed [35]) was 3 (weed kill ratio 40% or more, less than 70%), the “O (catchweed) weedkilling efficacy grade” value (catchweed [36]) was 1 (weed kill ratio 5% or more, less than 20%) and the “b (directly sown rice) effect on crop grade” value (directly sown rice [37]) was 5 (weed kill ratio 90% or more, (practically complete withering)). For the same molecule, the “c (corn) effect on crop grade” value (corn [38]) was 3 (weed kill ratio 40% or more, less than 70%), the “d (soybean) effect on crop grade” value (soybean [39]) was 4 (weed kill ratio 70% or more, less than 90%) and the “e (wheat) effect on crop grade” value (wheat [40]) was 0 (weed kill ratio 5% or less (practically no effect)). For the same molecule, the “f (beet) effect on crop grade” value (beet [41]) was 3 (weed kill ratio 40% or more, less than 70%) and the “g (rapeseed) effect on crop grade” value (rapeseed [42]) was 4 (weed kill ratio 70% or more, less than 90%).
